Test results reported in patent publication US8088761B2, “Enzyme inhibitors” (Cancer Research Technology Limited, priority 2005, dated 2012).
Where two headings read alike, the source gives them in different places.

What was measured:
HCT116 cells = assay: Cell viability assay (MTT) in HCT116 cell line; assay type: cell-based; conditions: Homo sapiens, HCT-116, 72 hrs, IC50 range, read-out: HCT116 cell growth inhibition
Outline: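 MTT read-out (4 hrs, 37 °C, DMSO extraction) following 72 hrs of treatment with 0-50 μM Aurora inhibitor. HCT116 cells were plated a day earlier and tested in triplicate; IC50 derived from the curve.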

Aurora-B = Aurora-B (Homo sapiens, UniProt Q96GD4); assay: Filterplate assay for Aurora-B inhibitors; assay type: biochemical; conditions: read-out: IC50 range in respect of Aurora-B
Procedure: (§1) 40 μl master mix of kinase buffer (50 mM Tris pH 7.5, 10 mM NaCl, 2.5 mM MgCL2, 1 mM DTT, 20 μM ATP, 0.025 μCi/μl ^33P-ATP, and 100 μg/ml MBP was added to a 96-well plate followed by addition of 250 ng of Aurora-A enzyme per well. The plate was shaken for approximately 2 min on a flat-bed plate shaker (Wellmix, Denley, UK) and incubated for 2 hours at room temperature. The reaction was stopped by the addition of 30 μl of 2% orthophosphoric acid. The reaction mixture was then transferred and filtered on the 96-well Multi-Screening Filter Plate (MATAH0P00, MILLIPORE), pre-treated with 50 μl per well of 0.5% orthophosphoric acid. The plate was washed twice with 200 μl of 0.5% orthophosphoric acid and vacuum-dried. 25 μl of scintillant (Microscint™20, PerkinElmer) per well was added and the plate was shaken for 10 min. Finally, the plate was re-sealed with TopSealA and the signal from the filter-bound component was read on TopCount-NXT™ (PerkinElmer Life Sciences UK Ltd., Hounslow, UK).
(§2) Filterplate Assay for Identification and Evaluation of Aurora-B and Aurora-C Inhibitors
(§3) For the determination of the inhibitory activity against Aurora-B or Aurora-C, the same conditions were followed in the assay using Aurora-B or Aurora-C enzymes.

Aurora-C = target: T1, Aurora-C (Homo sapiens, UniProt Q9UQB9); assay: Filterplate assay for Aurora-C inhibitors; assay type: biochemical; conditions: read-out: IC50 range in respect of Aurora-C
T1 sequence (Q9UQB9 1-309): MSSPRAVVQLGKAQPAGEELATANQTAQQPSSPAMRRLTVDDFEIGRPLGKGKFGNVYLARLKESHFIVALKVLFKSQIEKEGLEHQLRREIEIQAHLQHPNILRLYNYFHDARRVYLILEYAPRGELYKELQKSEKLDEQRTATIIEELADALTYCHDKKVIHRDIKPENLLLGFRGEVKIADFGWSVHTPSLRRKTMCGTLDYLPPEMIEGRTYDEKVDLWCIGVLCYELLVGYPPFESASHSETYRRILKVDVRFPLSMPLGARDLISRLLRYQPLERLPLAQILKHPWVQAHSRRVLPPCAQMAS
Procedure: as §1, §2, §3

Aurora-A = target: T2, Aurora-A (Homo sapiens, UniProt O14965); assay: Flashplate Aurora A enzyme inhibition assay; assay type: biochemical; conditions: read-out: Aurora-A inhibition
T2 sequence (O14965 1-403): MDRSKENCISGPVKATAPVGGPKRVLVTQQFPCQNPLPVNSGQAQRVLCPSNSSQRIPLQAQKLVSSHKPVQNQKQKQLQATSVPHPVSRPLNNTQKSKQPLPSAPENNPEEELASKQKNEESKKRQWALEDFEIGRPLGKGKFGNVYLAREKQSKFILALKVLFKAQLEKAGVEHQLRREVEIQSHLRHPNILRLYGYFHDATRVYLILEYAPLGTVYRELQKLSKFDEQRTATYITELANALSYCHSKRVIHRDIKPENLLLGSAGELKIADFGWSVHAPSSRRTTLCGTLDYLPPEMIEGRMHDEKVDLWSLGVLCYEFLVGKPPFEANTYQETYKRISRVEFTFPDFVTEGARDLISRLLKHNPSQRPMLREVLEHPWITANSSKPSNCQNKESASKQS
Outline: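 This is a radiometric Flashplate format: plates were precoated with DTT, and compound (in 2% DMSO) was mixed with kinase buffer (pH 7.5 Tris, MgCl2, NaCl) containing 1 mM MBP, 20 μM ATP and ^33P-ATP. The reaction was started with 250 ng Aurora-A per well and incubated 2 h at RT. It was then stopped by 10 mM sodium pyrophosphate washing, and plates were scintillation-counted.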

Aurora-B, sequence (Q96GD4 whole entry): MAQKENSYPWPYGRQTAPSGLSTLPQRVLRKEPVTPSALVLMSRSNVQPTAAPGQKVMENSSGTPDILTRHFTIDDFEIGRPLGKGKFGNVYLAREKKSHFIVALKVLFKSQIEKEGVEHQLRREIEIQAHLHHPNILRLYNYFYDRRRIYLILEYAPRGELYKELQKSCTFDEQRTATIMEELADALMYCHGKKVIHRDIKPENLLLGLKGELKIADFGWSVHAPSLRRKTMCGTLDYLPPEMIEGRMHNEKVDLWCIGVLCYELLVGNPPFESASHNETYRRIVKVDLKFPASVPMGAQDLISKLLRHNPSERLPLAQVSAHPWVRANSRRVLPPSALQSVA

SMILES	IC50 (HCT116 cells) [nM]	IC50 (Aurora-B) [nM]	IC50 (Aurora-C) [nM]	IC50 (Aurora-A; Flashplate assay, IC50 range) [nM]	IC50 (Aurora-A) [nM]
Cc1cc(CN2CCN(c3c(Br)cnc4[nH]c(-c5ccc(Cn6cccn6)cc5)nc34)CC2)no1 [Example 77, 6-Bromo-7-[4-(5-methyl-isoxazol-3-ylmethyl)-piperazin-1-yl]-2-(4-pyrazol-1-ylmethyl-phenyl)-3H-imidazo[4,5-b]pyridine]	< 500	< 500	< 500	< 500	
Brc1cnc2[nH]c(-c3ccc(CN4CCNCC4)cc3)nc2c1N1CCN(Cc2cccnc2)CC1 [Example 106, 6-Bromo-2-(4-(piperazin-1-ylmethyl)phenyl)-7-(4-(pyridin-3-ylmethyl)piperazin-1-yl)-3H-imidazo[4,5-b]pyridine]	< 500	500 to 2000	< 500	< 500	
Cc1nc(CN2CCN(c3c(Br)cnc4[nH]c(-c5ccc(Cn6cccn6)cc5)nc34)CC2)cs1 [Example 162, 4-((4-(2-(4-((1H-Pyrazol-1-yl)methyl)phenyl)-6-bromo-3H-imidazo[4,5-b]pyridin-7-yl)piperazin-1-yl)methyl)-2-methylthiazole]	< 500	500 to 2000	< 500	< 500	
Brc1cnc2[nH]c(-c3ccc(CN4CCOCC4)cc3)nc2c1N1CCN(Cc2cncnc2)CC1 [Example 122, 4-(4-(6-Bromo-7-(4-(pyrimidin-5-ylmethyl)piperazin-1-yl)-3H-imidazo[4,5-b]pyridin-2-yl)benzyl)morpholine]	< 500	< 500	< 500	< 500	
Brc1cnc2[nH]c(-c3ccc(CN4CCOCC4)cc3)nc2c1N1CCN(Cc2cccnc2)CC1 [Example 65, 6-Bromo-2-(4-morpholin-4-ylmethyl-phenyl)-7-(4-pyridin-3-ylmethyl-piperazin-1-yl)-3H-imidazo[4,5-b]pyridine]	< 500	500 to 2000	< 500	< 500	
CN1CCN(c2ccc(-c3nc4c(N5CCN(Cc6ccc(Cl)cc6)CC5)c(Br)cnc4[nH]3)cc2)CC1 [Example 86, 6-Bromo-7-[4-(4-chloro-benzyl)-piperazin-1-yl]-2-[4-(4-methyl-piperazin-1-yl)-phenyl]-3H-imidazo[4,5-b]pyridine]	< 500			< 500	
COc1ccc(-c2nc3c(N4CCN(Cc5cncnc5)CC4)c(Br)cnc3[nH]2)cc1 [Example 121, 6-Bromo-2-(4-methoxyphenyl)-7-(4-(pyrimidin-5-ylmethyl)piperazin-1-yl)-3H-imidazo[4,5-b]pyridine]	< 500			< 500	
CN(C)c1ccc(-c2nc3c(N4CCN(CC(=O)N5CCCC5)CC4)c(Br)cnc3[nH]2)cc1 [Example 25, 2-(4-(6-Bromo-2-(4-(dimethylamino)phenyl)-3H-imidazo[4,5-b]pyridin-7-yl)piperazin-1-yl)-1-(pyrrolidin-1-yl)ethanone]	2000 to 50000			< 500	
Brc1cnc2[nH]c(-c3ccc(CN4CCOCC4)cc3)nc2c1N1CCN(Cc2nccs2)CC1 [Example 152, 4-(4-(6-Bromo-7-(4-(thiazol-2-ylmethyl)piperazin-1-yl)-3H-imidazo[4,5-b]pyridin-2-yl)benzyl)morpholine]	500 to 2000			< 500	
Clc1cnc2[nH]c(-c3ccc(CN4CCNCC4)cc3)nc2c1N1CCN(Cc2cncnc2)CC1 [Example 141, 6-Chloro-2-(4-(piperazin-1-ylmethyl)phenyl)-7-(4-(pyrimidin-5-ylmethyl)piperazin-1-yl)-3H-imidazo[4,5-b]pyridine]	500 to 2000			< 500	
COc1ccc(-c2nc3c(N4CCN(Cc5cscn5)CC4)c(Br)cnc3[nH]2)cc1 [Example 154, 4-((4-(6-Bromo-2-(4-methoxyphenyl)-3H-imidazo[4,5-b]pyridin-7-yl)piperazin-1-yl)methyl)thiazole]	< 500				< 500
CN(C)c1ccc(-c2nc3c(N4CCN(S(C)(=O)=O)CC4)c(Br)cnc3[nH]2)cc1 [Example 49, 4-(6-Bromo-7-(4-(methylsulfonyl)piperazin-1-yl)-3H-imidazo[4,5-b]pyridin-2-yl)-N,N-dimethylaniline]	500 to 2000			< 500	
COc1ccc(-c2nc3c(N4CCN(CC5CCC5)CC4)c(Br)cnc3[nH]2)cc1 [Example 149, 6-Bromo-7-(4-(cyclobutylmethyl)piperazin-1-yl)-2-(4-methoxyphenyl)-3H-imidazo[4,5-b]pyridine]	< 500			< 500	
Brc1cnc2[nH]c(-c3ccc(OCCN4CCOCC4)cc3)nc2c1N1CCN(Cc2cccnc2)CC1 [Example 112, 4-(2-(4-(6-Bromo-7-(4-(pyridin-3-ylmethyl)piperazin-1-yl)-3H-imidazo[4,5-b]pyridin-2-yl)phenoxy)ethyl)morpholine]	500 to 2000			< 500	
Brc1cnc2[nH]c(-c3ccc(OCCN4CCOCC4)cc3)nc2c1N1CCN(Cc2ccncc2)CC1 [Example 82, 6-Bromo-2-[4-(2-morpholin-4-yl-ethoxy)-phenyl]-7-(4-pyridin-4-ylmethyl-piperazin-1-yl)-3H-imidazo[4,5-b]pyridine]	< 500			< 500	
O=C(CN1CCN(c2c(Br)cnc3[nH]c(-c4ccccc4)nc23)CC1)Nc1nccs1 [Example 5, 2-[4-(6-Bromo-2-phenyl-3H-imidazo[4,5-b]pyridin-7-yl)-piperazin-1-yl]-N-thiazol-2-yl-acetamide]	2000 to 50000			< 500	
CN1CCN(c2ccc(-c3nc4c(N5CCN(Cc6cccnc6)CC5)c(Br)cnc4[nH]3)cc2)CC1 [Example 101, 6-Bromo-2-(4-(4-methylpiperazin-1-yl)phenyl)-7-(4-(pyridin-3-ylmethyl)piperazin-1-yl)-3H-imidazo[4,5-b]pyridine]	500 to 2000			< 500	
FC(F)(F)c1ccc(CN2CCN(c3c(Br)cnc4[nH]c(-c5ccc(CN6CCOCC6)cc5)nc34)CC2)cn1 [Example 125, 4-(4-(6-Bromo-7-(4-((6-(trifluoromethyl)pyridin-3-yl)methyl)piperazin-1-yl)-3H-imidazo[4,5-b]pyridin-2-yl)benzyl)morpholine]	< 500			< 500	
Clc1cnc2[nH]c(-c3ccc(CN4CCOCC4)cc3)nc2c1N1CCN(Cc2cscn2)CC1 [Example 177, 4-(4-(6-Chloro-7-(4-(thiazol-4-ylmethyl)piperazin-1-yl)-3H-imidazo[4,5-b]pyridin-2-yl)benzyl)morpholine]	500 to 2000			< 500	
NCc1cccc(-c2nc3c(N4CCN(Cc5cccnc5)CC4)c(Br)cnc3[nH]2)c1 [Example 92, (3-(6-Bromo-7-(4-(pyridin-3-ylmethyl)piperazin-1-yl)-3H-imidazo[4,5-b]pyridin-2-yl)phenyl)methanamine]	500 to 2000			< 500	
CC(c1ccncc1)N1CCN(c2c(Br)cnc3[nH]c(-c4ccc(N(C)C)cc4)nc23)CC1 (stereo not drawn) [Example 53, 4-(6-Bromo-7-(4-(1-(pyridin-4-yl)ethyl)piperazin-1-yl)-3H-imidazo[4,5-b]pyridin-2-yl)-N,N-dimethylaniline]	500 to 2000			< 500	
CC(c1ccncc1)N1CCN(c2c(Br)cnc3[nH]c(-c4ccc(N5CCOCC5)cc4)nc23)CC1 (stereo not drawn) [Example 130, 4-(4-(6-Bromo-7-(4-(1-(pyridin-4-yl)ethyl)piperazin-1-yl)-3H-imidazo[4,5-b]pyridin-2-yl)phenyl)morpholine]	500 to 2000			< 500	
